Data as given in the supplement of paper PMC10307832.

What follows are cell lines tested with CC1CC(=O)N(C2=CN=C(N=C2N1C3CCCC3)NC4=C(C=C(C=C4)C(=O)NC5CCN(CC5)C)OC)C [NPK76-II-72-1] + C[C@]1(O)C[C@@H](c2nc(-c3ccc4ccc(-c5ccccc5)nc4c3)c3c(N)nccn32)C1 [Linsitinib] (partner 1 µM) (assay: relative viability (nuclei count vs DMSO), 5 days (fraction); higher = more cells survive). Details: first compound 0.01 µM.
How it was run: (§1)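 Lung cancer cell lines in 1536-well plates were dosed by pin tool the day after seeding, either with one drug alone or with a fixed anchor-drug dose plus five library-drug doses (not always all listed) in √10 steps. After 5 days, cells were fixed and their nuclei stained in one step (final 0.05% Triton X-100, 1% formaldehyde, 1 ug/ml Hoechst), then counted on 4× images. Relative viability is the nuclei count in treated wells divided by that in vehicle wells. Values are medians of duplicate plates.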

Cell Line	relative viability
LXF-289	0.931
NCI-H23	0.546
NCI-H647	1.2
CAL-12T	0.721
NCI-H1651	0.947
EPLC-272H	0.973
NCI-H2228	0.428
NCI-H1792	0.615
NCI-H1355	0.844
NCI-H3122	0.945
NCI-H1437	0.973
NCI-H1755	0.972
NCI-H2023	0.488
HCC-15	0.85
PC-14	0.927
EKVX	0.935
LC-2-ad	0.78
NCI-H1563	1.07
NCI-H1944	1.16
NCI-H1975	0.956
RERF-LC-KJ	0.902
ABC-1	0.599
NCI-H358	0.742
NCI-H650	0.941
PC-3 [JPC-3]	0.927

Same assay, conditions: first compound 0.03162 µM

Cell Line	relative viability
NCI-H1915	1.1
HCC-827	0.91
LXF-289	0.977
NCI-H23	0.701
NCI-H647	1.28
CAL-12T	1.07
NCI-H1651	0.972
EPLC-272H	1.15
NCI-H2228	0.572
NCI-H1792	0.629
NCI-H1355	0.837
NCI-H3122	1.03
NCI-H1437	1.08
NCI-H1755	1
NCI-H2023	0.713
HCC-15	0.911
PC-14	1.1
EKVX	1.07
LC-2-ad	0.767
NCI-H1563	1.29
NCI-H1944	1.09
NCI-H1975	0.921
RERF-LC-KJ	0.876
ABC-1	0.558
NCI-H358	0.773
NCI-H650	1.02
PC-3 [JPC-3]	0.91

Same assay, conditions: first compound 0.1 µM

Cell Line	relative viability
NCI-H1915	1.11
HCC-827	0.939
LXF-289	0.921
CAL-12T	0.737
NCI-H1651	1.09
EPLC-272H	1.28
NCI-H2228	0.763
NCI-H1792	0.52
NCI-H1355	0.809
NCI-H3122	1.09
NCI-H1437	0.986
NCI-H1755	0.947
NCI-H2023	0.716
HCC-15	0.952
PC-14	0.938
EKVX	0.985
LC-2-ad	0.854
NCI-H1563	1.11
NCI-H1944	1.21
NCI-H1975	0.913
RERF-LC-KJ	0.802
ABC-1	0.861
NCI-H358	0.854
NCI-H650	0.652
PC-3 [JPC-3]	0.936

Same assay, conditions: first compound 0.3162 µM

Cell Line	relative viability
NCI-H1915	1.07
HCC-827	0.855
LXF-289	0.925
NCI-H23	0.592
NCI-H647	1.07
CAL-12T	0.736
NCI-H1651	0.867
EPLC-272H	1.05
NCI-H2228	0.66
NCI-H1792	0.492
NCI-H1355	0.792
NCI-H3122	1.03
NCI-H1437	0.802
NCI-H1755	1.01
NCI-H2023	0.56
HCC-15	0.826
PC-14	0.874
EKVX	0.764
LC-2-ad	0.801
NCI-H1563	1.16
NCI-H1944	1.06
NCI-H1975	1.01
RERF-LC-KJ	0.771
ABC-1	0.703
NCI-H358	0.412
PC-3 [JPC-3]	0.935

Same assay, conditions: first compound 1 µM

Cell Line	relative viability
NCI-H1915	1.14
HCC-827	1.01
LXF-289	1
NCI-H23	0.552
NCI-H647	1.14
CAL-12T	0.808
NCI-H1651	1.05
EPLC-272H	1.18
NCI-H2228	0.736
NCI-H1792	0.591
NCI-H1355	0.848
NCI-H3122	1.05
NCI-H1437	1.07
NCI-H1755	0.985
NCI-H2023	0.655
HCC-15	0.953
PC-14	1.06
EKVX	1.18
LC-2-ad	0.834
NCI-H1563	1.2
NCI-H1944	1.28
NCI-H1975	1.03
RERF-LC-KJ	0.923
ABC-1	0.767
NCI-H358	0.784
NCI-H650	0.845
PC-3 [JPC-3]	0.963

The cell lines below were run with CC[C@@H]1C(=O)N(C)c2cnc(Nc3ccc(C(=O)NC4CCN(C)CC4)cc3OC)nc2N1C1CCCC1 [BI-2536] + COc1cccc2cc(-c3nc([C@H]4CC[C@H](C(=O)O)CC4)n4ncnc(N)c34)[nH]c12 [OSI-027] (partner 0.5 µM) in the same assay as above. Details: first compound 0.01 µM.
How it was run: as §1

Cell Line	relative viability
NCI-H1915	0.597
HCC-827	0.715
